Test results published in patent US20250302833A1, “PHARMACEUTICAL COMPOSITION FOR TREATING OR PREVENTING CYSTIC DISEASE” (CHUGAI SEIYAKU KABUSHIKI KAISHA, priority 2022, published 2025).
pIC50: −log10 of the molar value.

Assays:
Assay type in all cases: cell-based
human NaPi-IIb = molecular target: T1, human NaPi-IIb (Homo sapiens, UniProt O95436); experiment: 33PO4 uptake inhibition in CHO cells expressing human NaPi-IIb; conditions: CHO cells transiently expressing human NaPi-IIb, pH 6.5
T1 construct: expressed in transfected cells; host or cells: CHO cells, transient transfection with Fugene HD
T1 sequence (O95436 1-690): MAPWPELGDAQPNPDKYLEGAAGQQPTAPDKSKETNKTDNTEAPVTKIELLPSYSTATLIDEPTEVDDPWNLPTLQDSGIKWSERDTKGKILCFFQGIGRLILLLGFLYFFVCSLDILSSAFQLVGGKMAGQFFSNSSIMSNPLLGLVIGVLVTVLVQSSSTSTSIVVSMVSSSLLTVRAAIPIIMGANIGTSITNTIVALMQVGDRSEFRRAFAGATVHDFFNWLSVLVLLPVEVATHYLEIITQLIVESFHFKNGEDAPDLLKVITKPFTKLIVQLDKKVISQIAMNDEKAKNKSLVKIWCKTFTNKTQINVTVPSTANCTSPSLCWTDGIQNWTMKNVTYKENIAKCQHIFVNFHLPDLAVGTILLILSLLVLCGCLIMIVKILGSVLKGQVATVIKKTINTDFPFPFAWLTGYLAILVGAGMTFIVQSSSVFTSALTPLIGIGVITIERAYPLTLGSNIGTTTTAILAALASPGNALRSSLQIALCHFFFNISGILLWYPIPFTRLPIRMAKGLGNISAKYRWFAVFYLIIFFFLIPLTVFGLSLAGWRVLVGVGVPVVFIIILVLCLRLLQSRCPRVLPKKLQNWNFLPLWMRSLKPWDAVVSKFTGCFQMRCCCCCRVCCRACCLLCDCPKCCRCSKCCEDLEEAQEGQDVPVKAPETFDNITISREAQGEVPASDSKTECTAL
Protocol: For transient expression, human NaPi-IIb expression plasmids, human PiT1 expression plasmids, human PiT2 expression plasmids, and Fugene HD Transfection (Promega Corporation) were added to CHO cells using a 96-well plate, and the plate was incubated in a C02 incubator for 16 hours. The medium was replaced with buffer A (145 mM choline chloride, 3 mM KCl, 1 mM CaCl2), 0.5 mM MgCl2, 5 mM glucose, 5 mM MES, (pH 6.5)), and then replaced with buffer B (145 mM NaCl, 3 mM KCl, 1 mM CaCl2, 0.5 mM MgCl2, 5 mM glucose, 5 mM MES (pH 6.5)) to which a test compound was added at the final concentration of 0.01, 0.03, 0.1, 0.3, 1, 3, 10, or 30 μM, buffer A to which DMSO was added, or buffer B to which DMSO was added. After a certain time, a 1/20 amount of buffer A containing ^33PO4 (PerkinElmer Japan G. K.) was added and reacted at room temperature. After washing with ice-cooled buffer A, a liquid scintillator (MicroScint™-20, item number 6013621, PerkinElmer Japan G.K.) was added, and the ^33PO4 uptake amount was measured with the top count (Top Count NXT, PerkinElmer Japan G.K.). The inhibition rate was determined by the following formula. Here, a certain time was set to 10 minutes. The phrase “a 1/20 amount of buffer A containing ^33PO4 (PerkinElmer Japan G.K.) was added” refers to “buffer A containing ^33PO4 (PerkinElmer Japan G.K.) was added in an amount of 1/20 of the amount of solution filling the medium”.
The 50% ^33PO4-uptake inhibition concentrations (ICs) (UM) in a cell expressing human NaPi-Ilb, human PiT1, and human PiT2 were calculated from a straight line through two points sandwiching 50% inhibition rate. It should be noted that compounds 1 and 2 were not measured for baman PiT1 and human PiT2, which was indicated as “-” in Table 1.

[1] = test system: primary cells from kidney tissues of human ADPKD patients; experiment: Inhibition of three-dimensional cyst formation using primary cells from kidney tissue of human ADPKD patient; conditions: 168 h, test compound 30 μM, forskolin + ITS stimulation, 7 days 3D culture, average N=3, read-out: Inhibition rate (%) of cyst formation
Protocol: Primary cells were isolated from kidney tissues of human ADPKD patients. Under two-dimensions, the isolated cells were cultured for 2 days using DMEM/F-12 (Thermo Fisher Scientific, Inc.) supplemented with 10% FBS. Subsequently, three-dimensional culture was performed for 7 days using 3D Ready Atelocollagen (KOKEN CO., LTD.). During three-dimensional culture, 50 µM forskolin (Sigma-Aldrich Co. LLC) and ITS liquid media supplements (Sigma-Aldrich Co. LLC) were added as stimulating agents to some of the wells to form cysts, and a test compound was added at the final concentration of 30 μM. The test compound was also added to other wells at the final concentration of 30 μM. After 7 days of three-dimensional culture, it was fixed with 4% paraformaldehyde (Thermo Fisher Scientific, Inc.), and nucleic acid staining and cell membrane staining were performed with Hoechst 33342 (Thermo Fisher Scientific, Inc.) and CellLight Plasma Membrane-RFP, BacMam 2.0 (Thermo Fisher Scientific, Inc.). Three-dimensional imaging and volume analysis were performed using Operetta CLS and image analysis software Harmony (PerkinElmer Japan G.K.). The inhibition rate was determined by the following formula.

human PiT1 = molecular target: T2, human PiT1 (Homo sapiens, UniProt Q8WUM9); experiment: 33PO4 uptake inhibition in CHO cells expressing human PiT1; conditions: CHO cells transiently expressing human PiT1, pH 6.5
T2 construct: expressed in transfected cells; host or cells: CHO cells, transient transfection with Fugene HD
T2 sequence (Q8WUM9 1-679): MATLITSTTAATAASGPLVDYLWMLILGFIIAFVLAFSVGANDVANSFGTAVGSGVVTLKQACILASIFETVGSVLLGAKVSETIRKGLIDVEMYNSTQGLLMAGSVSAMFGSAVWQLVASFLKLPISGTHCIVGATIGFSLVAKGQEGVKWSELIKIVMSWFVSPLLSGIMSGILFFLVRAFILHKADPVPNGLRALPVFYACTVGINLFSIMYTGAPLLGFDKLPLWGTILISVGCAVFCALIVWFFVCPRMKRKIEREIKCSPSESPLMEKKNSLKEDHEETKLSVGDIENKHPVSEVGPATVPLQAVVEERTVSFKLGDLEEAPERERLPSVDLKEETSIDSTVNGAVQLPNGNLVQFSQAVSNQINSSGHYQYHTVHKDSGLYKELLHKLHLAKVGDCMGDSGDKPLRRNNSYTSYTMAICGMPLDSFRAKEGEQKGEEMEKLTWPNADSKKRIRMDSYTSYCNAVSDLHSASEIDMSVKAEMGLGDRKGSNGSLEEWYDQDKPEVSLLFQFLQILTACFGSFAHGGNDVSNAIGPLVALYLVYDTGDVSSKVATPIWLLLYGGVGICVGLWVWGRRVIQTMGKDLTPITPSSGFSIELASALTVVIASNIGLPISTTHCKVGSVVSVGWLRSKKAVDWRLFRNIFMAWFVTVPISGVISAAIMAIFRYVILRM
Protocol: (§1) For transient expression, human NaPi-IIb expression plasmids, human PiT1 expression plasmids, human PiT2 expression plasmids, and Fugene HD Transfection (Promega Corporation) were added to CHO cells using a 96-well plate, and the plate was incubated in a C02 incubator for 16 hours. The medium was replaced with buffer A (145 mM choline chloride, 3 mM KCl, 1 mM CaCl2), 0.5 mM MgCl2, 5 mM glucose, 5 mM MES, (pH 6.5)), and then replaced with buffer B (145 mM NaCl, 3 mM KCl, 1 mM CaCl2, 0.5 mM MgCl2, 5 mM glucose, 5 mM MES (pH 6.5)) to which a test compound was added at the final concentration of 0.01, 0.03, 0.1, 0.3, 1, 3, 10, or 30 μM, buffer A to which DMSO was added, or buffer B to which DMSO was added. After a certain time, a 1/20 amount of buffer A containing ^33PO4 (PerkinElmer Japan G. K.) was added and reacted at room temperature. After washing with ice-cooled buffer A, a liquid scintillator (MicroScint™-20, item number 6013621, PerkinElmer Japan G.K.) was added, and the ^33PO4 uptake amount was measured with the top count (Top Count NXT, PerkinElmer Japan G.K.). The inhibition rate was determined by the following formula. Here, a certain time was set to 10 minutes. […]

human PiT2 = molecular target: T3, human PiT2 (Homo sapiens, UniProt Q08357); experiment: 33PO4 uptake inhibition in CHO cells expressing human PiT2; conditions: CHO cells transiently expressing human PiT2, pH 6.5
T3 construct: expressed in transfected cells; host or cells: CHO cells, transient transfection with Fugene HD
T3 sequence (Q08357 1-652): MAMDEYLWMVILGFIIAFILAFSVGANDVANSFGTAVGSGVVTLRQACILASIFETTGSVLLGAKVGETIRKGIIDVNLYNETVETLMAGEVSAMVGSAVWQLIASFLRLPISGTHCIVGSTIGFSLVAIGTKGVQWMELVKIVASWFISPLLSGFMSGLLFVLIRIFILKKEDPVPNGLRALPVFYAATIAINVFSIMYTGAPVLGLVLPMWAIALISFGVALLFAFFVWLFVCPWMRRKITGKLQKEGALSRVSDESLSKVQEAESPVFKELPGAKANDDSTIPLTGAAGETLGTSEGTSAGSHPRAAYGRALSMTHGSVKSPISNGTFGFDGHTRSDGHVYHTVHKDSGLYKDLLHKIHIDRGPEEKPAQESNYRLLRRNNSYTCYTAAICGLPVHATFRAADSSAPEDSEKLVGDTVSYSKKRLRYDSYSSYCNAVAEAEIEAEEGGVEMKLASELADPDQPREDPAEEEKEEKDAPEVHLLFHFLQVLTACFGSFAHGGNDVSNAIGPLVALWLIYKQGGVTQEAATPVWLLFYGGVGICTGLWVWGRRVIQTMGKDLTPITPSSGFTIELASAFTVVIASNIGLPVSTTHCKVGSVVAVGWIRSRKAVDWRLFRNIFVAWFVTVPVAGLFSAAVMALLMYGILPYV
Protocol: as §1

pIC50 (human NaPi-IIb) | pIC50 (human PiT1) | pIC50 (human PiT2) | SMILES | inhibition at 30 µM [1] [%]
5.10 |  |  | O=c1[nH]nc(Sc2ccc(C(F)(F)F)cn2)n1-c1cc(Cl)c(Cl)cc1C(F)(F)F [Compound 1, 4-[4,5-Dichloro-2-(trifluoromethyl)phenyl]-3-[5-(trifluoromethyl)pyridin-2-yl]sulfanyl-1H-1,2,4-triazol-5-one] | 98.2
5.54 |  |  | C[C@]12CCCN1N(Cc1cccc(Cl)c1F)C(=O)C(C(=O)Nc1cc(F)c(Br)c(F)c1)=C2O [Compound 2, (4aR)-N-(4-Bromo-3,5-difluorophenyl)-1-[(3-chloro-2-fluorophenyl)methyl]-4-hydroxy-4a-methyl-2-oxo-6,7-dihydro-5H-pyrrolo[1,2-b]pyridazine-3-carboxamide] | 100
5.42 | < 4.52 | < 4.52 | O=C(Nc1ccc(Cl)cc1C(=O)c1cnn(-c2ccc(Cl)c(C(F)(F)F)c2)c1)c1cccc(CN2CCC(N3CCCCC3)CC2)c1 [Compound 3, N-[4-Chloro-2-[1-[4-chloro-3-(trifluoromethyl)phenyl]pyra-zole-4-carbonyl]phenyl]-3-[(4-piperidin-1-ylpiperidin-1-yl)methyl]benzamide] | 100
